Experimental data taken from PMC8929047, “Synthetic Oligopeptides Mimicking γ-Core Regions of Cysteine-Rich Peptides of Solanum lycopersicum Possess Antimicrobial Activity against Human and Plant Pathogens” (Current Issues in Molecular Biology, 2021).
Peptide text beside a SMILES is read from it.

Key:
[1] = system: Botrytis cinerea VKM F-4549; type: cell-based; conditions: for B. cinerea growth dynamics in the presence of peptide: peptide 60 μM, absorbance after 14-62 h, control H2O; for Inhibition of B. cinerea growth: peptide 300 μM, relative to control
Method: (§1) To study the effect of peptides on spore germination and growth of plant pathogenic fungi, fungal strains from the VKM collection were used: Fusarium culmorum VKM F-2303, F. oxysporum VKM F-137, F. solani VKM F-142, F. verticillioides VKM F-670, Bipolaris sorokiniana VKM F-4006, and Botrytis cinerea VKM F-4549. The fungi were grown on potato dextrose agar at 25 °C for 7–8 days, or for B. sorokiniana and B. cinerea, for 10–12 days. Spores were washed off from the surface of the mycelia with sterile distilled water and filtered through a sterile filter. The filtrate was centrifuged at 6000 rpm for 15 min. The precipitate was washed three times with sterile distilled water, transferred to Eppendorf tubes, and centrifuged at 10,000 rpm for 2 min. 1 mL of sterile aqueous 20% glycerol solution was added to the spores, and the tubes with spores were stored in a freezer at −20 °C.
(§2) Similar to antimicrobial assays with yeasts and bacteria, the effect of peptides on spore germination and fungal growth was studied by measuring the absorbance of the spore suspension in the presence of the peptide in microtiter plates. The wells of a plate were filled with 90 µL of spore suspension in half-strength potato dextrose broth at a concentration of 2000–3000 spores in 100 µL and 10 µL of aqueous solutions of peptides at final concentrations of 10–300 µM. The concentration of spores in the suspension was determined in the Goryaev chamber. The absorbance was recorded at 595 nm on a FilterMax F5 Multi-Mode Microplate Reader (Molecular Devices, San Jose, CA, USA) after 38 h of incubation, for B. sorokiniana and B. cinerea, after 14, 19, 24, 38, 43, 62 h.
(§3) Antimicrobial activity was expressed in IC50 values, which denote the concentration required for 50% inhibition of the pathogen growth; this was determined from a graph showing the dependence of antimicrobial activity on peptide concentration.
(§4) For each pathogen, experiments on the evaluation of antimicrobial activity of the synthetic peptides were performed with three replicates per treatment. Mean values, standard deviations (SD), and the significance of differences (p ≤ 0.05) of the means between treatments and controls (t-test for independent variables) were determined using STATISTICA v. 6.1 software (StatSoft Inc., Tulsa, OK, USA).

[2] = system: Cryptococcus neoformans VKM Y-2755; conditions: for Inhibition of C. neoformans growth: peptide 300 μM, 24 h, relative to control; for IC50: Cryptococcus neoformans, 24 h incubation, 30 °C, absorbance 594 nm, max tested 100 μM, mean ± SD, three replicates
Method: (§5) The antimicrobial activity of synthetic peptides was tested against the yeasts Cryptococcus neoformans VKM Y-2755 and Candida albicans VKM Y-2994, as well as against the bacteria Pectobacterium carotovorum subsp. carotovorum VKM B-1247, Pseudomonas savastanoi pv. savastanoi VKM B-1546 and Clavibacter michiganensis subsp. michiganensis VKM Ac-1403. All cultures were obtained from the All-Russian Collection of Microorganisms (VKM). Yeasts were grown on YPD-P medium containing (g/L): glucose–10, peptone–5 and yeast extract–4. Bacterial cultures were grown on medium containing (g/L): yeast extract–1, soya extract–30, aminopeptides (a solution of low-molecular weight peptides and all essential amino acids obtained from the blood of cattle by enzymatic hydrolysis)–60, tryptone–5 and pH 7.2. The microbial cultures were grown on a shaker at 30 °C for 24 h. The optical density of the cultures was measured on a UNICO 1201 (Unico, Dayton, NJ, USA) spectrophotometer at 594 nm. Yeast cultures were diluted 1:10 with water before analysis. […] The antibiotic activity of peptides against yeasts and bacteria was assayed in immunoassay microtiter plates. 10 µL of the tested peptide solution (final concentrations of 10–300 µM) in water, 80 µL of the medium and 10 µL of the microbial suspension were mixed in a well of the microtiter plate and incubated at 30 °C for 24 h; after that, the absorbance of the suspension was measured on an Efos 9305 spectrophotometer (Sapphire, Moscow, Russia) at 594 nm.
as §3
as §4, with “STATISTICA” left out

[3] = system: Clavibacter michiganensis subsp. michiganensis VKM Ac-1403; type: cell-based; conditions: for IC50: Clavibacter michiganensis, 24 h incubation, 30 °C, absorbance 594 nm, max tested 100 μM, mean ± SD, three replicates
Method: as §5, §3, §4

[4] = system: Bipolaris sorokiniana VKM F-4006; assay: Spore germination and fungal growth inhibition (absorbance); type: cell-based; conditions: for Inhibition of B. sorokiniana growth: peptide 300 μM, relative to control
Method: as §1, §2, §3, §4

[5] = system: Fusarium species; assay: Spore germination and fungal growth inhibition, statement for all tested Fusarium species; type: cell-based; conditions: peptide 300 μM, relative to control
Method: as §1
as §2, with “h. […]” for “h.”
as §4, with “6.1 software (StatSoft Inc., Tulsa, OK, USA).” left out

[6] = system: F. solani VKM F-142; type: cell-based, Fusarium solani; conditions: for IC50: Fusarium solani, 38 h incubation, absorbance 595 nm, max tested 150 μM, mean ± SD, three replicates
Method: as §1
as §2, with “h. […]” for “h.”
as §4, with “6.1 software (StatSoft Inc., Tulsa, OK, USA).” left out

[7] = system: F. verticillioides VKM F-670; type: cell-based, Fusarium verticillioides; conditions: for IC50: Fusarium verticillioides, 38 h incubation, absorbance 595 nm, max tested 180 μM, mean ± SD, three replicates
Method: as §1
as §2, with “h. […]” for “h.”
as §4, with “6.1 software (StatSoft Inc., Tulsa, OK, USA).” left out

[8] = system: Fusarium culmorum VKM F-2303; assay: Spore germination and fungal growth inhibition (absorbance); type: cell-based; conditions: for IC50: Fusarium culmorum, 38 h incubation, absorbance 595 nm, max tested 150 μM, mean ± SD, three replicates; for Inhibition of F. culmorum growth: 38 h
Method: as §1, §2, §3, §4

[9] = system: F. oxysporum VKM F-137; type: cell-based; conditions: Fusarium oxysporum; 38 h incubation, absorbance 595 nm; max tested 150 μM; mean ± SD, three replicates
Method: as §1, §2, §3, §4

[10] = system: Pectobacterium carotovorum subsp. carotovorum VKM B-1247; assay: Growth inhibition of bacteria in microtiter plates (absorbance); type: cell-based; conditions: peptide 300 μM, 24 h, relative to control
Method: The antimicrobial activity of synthetic peptides was tested against the yeasts Cryptococcus neoformans VKM Y-2755 and Candida albicans VKM Y-2994, as well as against the bacteria Pectobacterium carotovorum subsp. carotovorum VKM B-1247, Pseudomonas savastanoi pv. savastanoi VKM B-1546 and Clavibacter michiganensis subsp. michiganensis VKM Ac-1403. All cultures were obtained from the All-Russian Collection of Microorganisms (VKM). Yeasts were grown on YPD-P medium containing (g/L): glucose–10, peptone–5 and yeast extract–4. […] The optical density of the cultures was measured on a UNICO 1201 (Unico, Dayton, NJ, USA) spectrophotometer at 594 nm. […] 10 µL of the tested peptide solution (final concentrations of 10–300 µM) in water, 80 µL of the medium and 10 µL of the microbial suspension were mixed in a well of the microtiter plate and incubated at 30 °C for 24 h; after that, the absorbance of the suspension was measured on an Efos 9305 spectrophotometer (Sapphire, Moscow, Russia) at 594 nm. […]
as §4, with “6.1 software (StatSoft Inc., Tulsa, OK, USA).” left out

CC[C@H](C)[C@H](NC(=O)[C@H](CCC(=O)O)NC(=O)[C@@H]1CCCN1C(=O)[C@H](CS)NC(=O)[C@H](CS)NC(=O)CNC(=O)[C@@H](N)CCCCN)C(=O)N[C@@H](C)C(=O)NCC(=O)N[C@@H](CC(C)C)C(=O)N[C@@H](CC(C)C)C(=O)N[C@@H](CC(=O)O)C(=O)N[C@@H](CO)C(=O)N[C@@H](CC(N)=O)C(=O)N1CCC[C@H]1C(=O)N[C@H](C(=O)N[C@@H](CS)C(=O)O)[C@@H](C)CC [γ70-86SlLTPg2.8] (H-KGCCPEIAGLLDSNPIC-OH; N-terminus and C-terminus assumed)
B. cinerea growth dynamics in the presence of peptide [1]: insensitive

C[C@@H](O)[C@H](NC(=O)[C@H](CCCCN)NC(=O)[C@@H]1CCCN1C(=O)[C@@H](NC(=O)[C@H](Cc1ccccc1)NC(=O)[C@H](CO)NC(=O)[C@H](CS)NC(=O)[C@H](Cc1ccc(O)cc1)NC(=O)CNC(=O)[C@H](Cc1ccccc1)NC(=O)[C@@H]1CCCN1C(=O)[C@@H](N)CCCNC(=N)N)[C@@H](C)O)C(=O)N[C@@H](CS)C(=O)O [γ92-104SlMEG2] (H-RPFGYCSFTPKTC-OH; N-terminus and C-terminus assumed)
Inhibition of C. neoformans growth [2]: with high efficiency
Inhibition of C. michiganensis growth ([3]; peptide 300 μM, 24 h, relative to control): with high efficiency
B. sorokiniana growth dynamics in the presence of peptide ([4]; peptide 60 μM, effect observed after 38 h of spore incubation, control H2O): significant growth suppression
B. cinerea growth dynamics in the presence of peptide [1]: insensitive
Inhibition of B. cinerea growth [1]: 36–40%
Suppression of Fusarium species [5]: insensitive

CC(C)C[C@H](NC(=O)[C@H](CCCNC(=N)N)NC(=O)[C@H](CS)NC(=O)[C@H](CCCNC(=N)N)NC(=O)[C@H](C)NC(=O)[C@H](C)NC(=O)[C@H](CS)NC(=O)[C@H](C)NC(=O)CN)C(=O)N[C@@H](CO)C(=O)N[C@@H](CO)C(=O)N[C@@H](CCCNC(=N)N)C(=O)N1CCC[C@H]1C(=O)N[C@@H](CCCNC(=N)N)C(=O)N[C@@H](CC(C)C)C(=O)N[C@@H](CS)C(=O)N[C@@H](Cc1c[nH]cn1)C(=O)N[C@@H](CCCNC(=N)N)C(=O)O [γ48-65SlSN2] (H-GACAARCRLSSRPRLCHR-OH)
IC50 [2]: 4.2 ± 0.6 µM
IC50 [3]: 23.1 ± 2.7 µM
IC50 [6]: 47.5 ± 2 µM
Maximum inhibition of F. solani ([6]; peptide 150 μM, 38 h): 69%
IC50 [7]: 152 ± 7.7 µM
IC50 [8]: 42.1 ± 6.5 µM
Inhibition of F. culmorum growth ([8]; peptide 75 μM): 79%
IC50 [9]: 57.1 ± 11.6 µM

CC(C)C[C@H](NC(=O)[C@H](CC(N)=O)NC(=O)[C@H](CCC(N)=O)NC(=O)[C@H](CCCNC(=N)N)NC(=O)[C@H](CO)NC(=O)[C@H](CO)NC(=O)[C@H](CCCCN)NC(=O)[C@H](CO)NC(=O)[C@H](CS)NC(=O)[C@H](CCCNC(=N)N)NC(=O)[C@@H](NC(=O)[C@H](CCCCN)NC(=O)[C@H](CS)NC(=O)[C@H](CO)NC(=O)CN)[C@@H](C)O)C(=O)N[C@@H](CS)C(=O)N[C@@H](CC(N)=O)C(=O)N[C@@H](CCCNC(=N)N)C(=O)O [γ47-64SlSN10] (H-GSCKTRCSKSSRQNLCNR-OH)
IC50 [8]: 127 ± 8.5 µM
IC50 [9]: 43.8 ± 6.8 µM

SGCCTQLSTVVDEKSEC [γ53-69SlLTPg2.5, synthetic 17-residue peptide corresponding to the γ-core region of tomato nsLTP SlLTPg2.5]
Inhibition of B. sorokiniana growth [4]: inactive
Inhibition of B. cinerea growth [1]: inactive
Suppression of Fusarium species [5]: inactive

SGCCTQLGTVVKNNPEC [γ56-72SlLTPg2.4, synthetic 17-residue peptide corresponding to the γ-core region of tomato nsLTP SlLTPg2.4]
Inhibition of B. sorokiniana growth [4]: inactive
Inhibition of B. cinerea growth [1]: inactive
Suppression of Fusarium species [5]: inactive

C[C@@H](O)[C@H](NC(=O)[C@H](CS)NC(=O)[C@H](Cc1ccccc1)NC(=O)[C@H](CS)NC(=O)[C@H](CCCNC(=N)N)NC(=O)[C@H](CCCNC(=N)N)NC(=O)[C@H](CCCNC(=N)N)NC(=O)[C@H](Cc1ccccc1)NC(=O)CNC(=O)[C@H](CCCNC(=N)N)NC(=O)[C@H](CS)NC(=O)[C@H](CC(N)=O)NC(=O)CNC(=O)CNC(=O)[C@@H](NC(=O)[C@@H](N)Cc1ccccc1)[C@@H](C)O)C(=O)N[C@@H](CCCNC(=N)N)C(=O)O [γ58-74SlDEFL4] (H-FTGGNCRGFRRRCFCTR-OH)
IC50 [2]: 8.1 ± 2.4 µM
IC50 [3]: 21.5 ± 5.1 µM
IC50 [8]: 42.3 ± 5.7 µM
Inhibition of B. cinerea growth [1]: 31–45%
IC50 [9]: 125 ± 3.7 µM

CC(C)C[C@H](NC(=O)CN)C(=O)N[C@@H](CS)C(=O)N[C@@H](CCCCN)C(=O)N[C@@H](Cc1ccc(O)cc1)C(=O)N[C@@H](CCCNC(=N)N)C(=O)N[C@@H](CS)C(=O)N[C@@H](CO)C(=O)N[C@@H](CC(C)C)C(=O)N[C@@H](Cc1c[nH]cn1)C(=O)N[C@@H](CO)C(=O)N[C@@H](CCCNC(=N)N)C(=O)N1CCC[C@H]1C(=O)N[C@@H](CC(N)=O)C(=O)N[C@H](C(=O)N[C@@H](CS)C(=O)N[C@@H](Cc1ccccc1)C(=O)N[C@@H](CCCNC(=N)N)C(=O)O)C(C)C [γ89-106SlSN9] (H-GLCKYRCSLHSRPNVCFR-OH)
IC50 [2]: 5.1 ± 1.2 µM
IC50 [3]: 24 ± 2.4 µM
IC50 [6]: 139 ± 6.1 µM
IC50 [7]: 99.8 ± 10 µM
Maximum inhibition of F. verticillioides ([7]; peptide 180 μM, 38 h): 62%
IC50 [8]: 42.4 ± 3.5 µM
Inhibition of F. culmorum growth ([8]; peptide 50 μM): 72%

C[C@@H](O)[C@H](NC(=O)[C@H](CS)NC(=O)[C@H](Cc1ccccc1)NC(=O)[C@H](CS)NC(=O)[C@H](CCCNC(=N)N)NC(=O)[C@H](CCCNC(=N)N)NC(=O)[C@H](CCCNC(=N)N)NC(=O)[C@H](Cc1ccccc1)NC(=O)CNC(=O)[C@H](CCCNC(=N)N)NC(=O)[C@H](CS)NC(=O)[C@H](CC(=O)O)NC(=O)CNC(=O)CNC(=O)[C@H](CO)NC(=O)[C@@H](N)Cc1ccccc1)C(=O)N[C@@H](CCCNC(=N)N)C(=O)O [γ58-74SlDEFL2] (H-FSGGDCRGFRRRCFCTR-OH)
IC50 [2]: 11.5 ± 2.5 µM
Inhibition of C. neoformans growth [2]: 90%
Inhibition of P. carotovorum growth [10]: 48%
IC50 [3]: 19.8 ± 2.5 µM
IC50 [8]: 44.8 ± 4 µM
Inhibition of B. cinerea growth [1]: 31–45%
